The source of these data is patent US20100016335A1, “NOVEL AMINOPYRIDINE DERIVATIVES HAVING AURORA A SELECTIVE INHIBITORY ACTION” (priority 2006, published 2010).

Assay [1] concerns the target T1, human Aurora A (Homo sapiens, UniProt O14965).
T1 construct: His (N); made in house; host or cells: Escherichia coli BL21-CodonPlus(DE3)-RIL
T1 sequence (O14965 1-403): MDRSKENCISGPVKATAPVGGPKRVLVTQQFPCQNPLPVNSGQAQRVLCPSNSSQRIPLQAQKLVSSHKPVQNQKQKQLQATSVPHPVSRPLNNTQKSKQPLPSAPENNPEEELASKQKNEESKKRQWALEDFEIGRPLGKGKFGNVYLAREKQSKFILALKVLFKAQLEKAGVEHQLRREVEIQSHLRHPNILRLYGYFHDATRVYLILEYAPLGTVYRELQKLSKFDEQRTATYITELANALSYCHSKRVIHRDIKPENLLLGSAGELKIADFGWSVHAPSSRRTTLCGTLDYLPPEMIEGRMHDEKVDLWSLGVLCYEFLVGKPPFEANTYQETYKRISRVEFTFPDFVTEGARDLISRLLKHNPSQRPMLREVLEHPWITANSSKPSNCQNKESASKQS
Briefly: Aurora A inhibitory activity (IMAP fluorescence polarization phosphorylation assay). The settings on record: 20 μM ATP, 30° C., 120 minutes. In kind it is biochemical. The source says:
cDNA of N-terminal His-tagged human Aurora A was integrated into an expression vector, which was then highly expressed in Escherichia coli BL21-CodonPlus(DE3)-RIL cells. The Escherichia coli was harvested and lysed, and then the His-tagged human Aurora A protein was applied onto a nickel chelate column and eluted from the column with imidazole. The active fractions were desalted with a desalting column to give a purified enzyme.
For the phosphorylation reaction, the method by Upstate, Inc. [Kinase Profiler™ Assay Protocols] was referred to, and phosphorylation of the substrate was detected using IMAP® technology (Molecular Devices, Co. Ltd.) (Gaudet E W. et. al, J. Biomol. Screen, 8, 164-175 (2003)). Concretely, the phosphorylation reaction and the detection were carried out as follows:
The phosphorylation reaction was conducted using 384 well plate, and the reaction volume was 10 μl/well. The reaction buffer is comprised of 50 mM Tris-chloride buffer (pH 7.4), 15 mM magnesium acetate, and 0.2 mM ethylenediamine-N,N,N′,N′-tetraacetic acid (EDTA). Thereto, the purified Aurora A protein, 100 nM of the peptide substrate, and 20 μM of adenosine 5′-triphosphate (ATP) were added, and then the reaction was carried out at 30° C. for 120 minutes.
Thereafter, in order to terminate and detect the reaction, 30 μl of the IMAP (registered trademark) binding reagent (IMAP Progressive Binding Reagent, R7284) that had been diluted (1:400) in the 1×IMAP binding buffer A (IMAP Progressive Binding Buffer A, 5× stock, R7282) was added to each well. The solution stood still for 60 minutes in the dark, and then fluorescence polarization was measured using a high-end microplate reader (excitation wavelength: 485 nm; emission wavelength: 520 nm).
The compound to be tested was added to the reaction system such that a dilution series of the compound in dimethylsulfoxide (DMSO) was prepared, and then 0.5 μL of this solution was added for the testing to each well. Each control well was provided by adding 0.5 μL of DMSO to the well in place of the DMSO solution containing the compound to be tested.

Assay [2] concerns the target T2, GST-tagged human Aurora B(AurB)/His-tagged human INCENP complex proteins (Homo sapiens, UniProt Q96GD4).
T2 construct: GST; purchased Carna Biosciences, Inc
The assay is described as follows: Aurora B inhibitory activity (Method A, IMAP assay kit). It counts as biochemical. The following applies: 40 μM ATP, 25° C., 45 minutes. As for the experimental part: An assay development kit for IMAP (registered trademark) (Aurora B), purchased from Carna Biosciences, Inc., was used for phosphorylation reaction, and the phosphorylation of a substrate was detected using the IMAP technology. […] Using the same, the phosphorylation reaction was conducted in accordance with a partially revised protocol attached to the kit, and then the phosphorylation of the substrate was detected using the IMAP technology.
For the phosphorylation reaction, 384 well plate was used, and the reaction volume was 10 μl/well. The composition of the reaction buffer (assay buffer) is comprised of 20 mM of HEPES buffer (pH 7.4), 0.01% Tween-20, and 2 mM of dithiothreitol (DTT). Thereto, AurB/INCENP complex protein, 100 nM of the substrate, and 40 μM of ATP, and 1 mM of magnesium salt were added, and then the reaction was conducted at 25° C. for 45 minutes. Thereafter, in order to terminate and detect the reaction, 30 μl of the IMAP (registered trademark) binding reagent (IMAP Progressive Binding Reagent, R7284) that had been diluted (1:400) in the 1× IMAP binding buffer A (IMAP Progressive Binding Buffer A, 5× stock, R7282) was added to each well.
The compound to be tested was added to the reaction system such that a dilution series of the compound in DMSO was prepared, and then 0.5 μL of this solution was added for the testing to each well. Each control well was provided by adding 0.5 μL of DMSO to the well in place of the DMSO solution containing the compound to be tested.

Counter-ions that a name gives are not always drawn. Bounds are passed on as bounds.

As a reminder, the IC50 is the point on the concentration scale where inhibition reaches its midpoint. High values mean weaker potency, low ones greater potency.

T2 sequence (Q96GD4 whole entry): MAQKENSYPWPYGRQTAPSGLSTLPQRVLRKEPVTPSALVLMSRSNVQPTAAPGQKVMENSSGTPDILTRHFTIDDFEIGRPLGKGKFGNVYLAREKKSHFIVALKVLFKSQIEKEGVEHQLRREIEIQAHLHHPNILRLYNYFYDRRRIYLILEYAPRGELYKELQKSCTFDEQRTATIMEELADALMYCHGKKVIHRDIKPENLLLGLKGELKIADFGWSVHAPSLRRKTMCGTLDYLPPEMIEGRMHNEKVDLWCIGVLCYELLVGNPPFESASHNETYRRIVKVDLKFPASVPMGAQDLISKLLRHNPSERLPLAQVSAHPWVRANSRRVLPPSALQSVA
T2 sequence (Q9NQS7 803-916 partner limits assumed): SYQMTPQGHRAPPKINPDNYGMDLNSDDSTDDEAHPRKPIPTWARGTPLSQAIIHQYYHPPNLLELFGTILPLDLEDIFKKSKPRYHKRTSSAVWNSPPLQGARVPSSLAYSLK

As for `CNC(=O)[C@]1(Cc2cccc(Nc3cc[nH]n3)n2)CC[C@@H](Oc2cccc(Cl)c2F)CC1` [Example 12, trans-4-(3-chloro-2-fluorophenoxy)-N-methyl-1-((6-(1H-pyrazol-3-ylamino)pyridin-2-yl)methyl)cyclohexanecarboxamide], the IC50 in assay [1] was 2.5 nM; in assay [2], more than 1000 nM.

`O=C(O)[C@]1(Cc2cccc(Nc3cc[nH]n3)n2)CC[C@@H](Oc2cccc(Cl)c2F)CC1` [Example 10, trans-4-(3-chloro-2-fluorophenoxy)-1-((6-(1H-pyrazol-3-ylamino)pyridin-2-yl)methyl)cyclohexanecarboxylic acid trifluoroacetate]: the IC50 was 0.15 nM in assay [1] and 200 nM in assay [2].

For the compound `Fc1c(O[C@H]2CC[C@](Cc3cccc(Nc4cc[nH]n4)n3)(c3nnco3)CC2)cccc1C(F)(F)F` [Example 22, 6-((trans-4-(2-fluoro-3-(trifluoromethyl)phenoxy)-1-(1,3,4-oxadiazol-2-yl)cyclohexyl)methyl)-N-1H-pyrazol-3-ylpyridin-2-amine], the IC50 in assay [1] is 4.1 nM; in assay [2] it was more than 1000 nM.

For the compound `Fc1c(O[C@H]2CC[C@](Cc3cccc(Nc4cc[nH]n4)n3)(c3n[nH]c(=S)o3)CC2)cccc1C(F)(F)F` [Example 42, 5-(trans-4-(2-fluoro-3-(trifluoromethyl)phenoxy)-1-((6-(1H-pyrazol-3-ylamino)pyridin-2-yl)methyl)cyclohexyl)-1,3,4-oxadiazole-2(3H)-thione trifluoroacetate], the IC50 in assay [1] worked out at 0.23 nM; in assay [2], 142 nM.

For `N=c1[nH]nc([C@]2(Cc3cccc(Nc4cc[nH]n4)n3)CC[C@@H](Oc3cccc(C(F)(F)F)c3F)CC2)o1` [Example 21, 6-((trans-4-(2-fluoro-3-(trifluoromethyl)phenoxy)-1-(5-imino-4,5-dihydro-1,3,4-oxadiazol-2-yl)cyclohexyl)methyl)-N-1H-pyrazol-3-ylpyridin-2-amine trifluoroacetate], the IC50 in assay [1] was 2.8 nM; in assay [2] it was more than 1000 nM.

For `O=C(O)[C@]1(Cc2cccc(Nc3nccs3)n2)CC[C@@H](Oc2cccc(C(F)(F)F)c2)CC1` [Example 7, trans-1-((6-(1,3-thiazol-2-ylamino)pyridin-2-yl)methyl)-4-(3-(trifluoromethyl)phenoxy)cyclohexanecarboxylic acid hydrochloride], the results for the IC50 in assay [1] and in assay [2] were 0.17 nM and 130 nM, respectively.

`CC(=O)N[C@]1(Cc2cccc(Nc3nccs3)n2)CC[C@@H](Oc2cccc(Cl)c2F)CC1` [Example 19, N-(trans-4-(3-chloro-2-fluorophenoxy)-1-((6-(1,3-thiazol-2-ylamino)pyridin-2-yl)methyl)cyclohexyl)acetamide]: the IC50 in assay [1] was found to be 0.82 nM; in assay [2], 320 nM.

For the compound `N#C[C@]1(Cc2cccc(Nc3cc[nH]n3)n2)CC[C@@H](Oc2cccc(Cl)c2F)CC1` [Example 16, trans-4-(3-chloro-2-fluorophenoxy)-1-((6-(1H-pyrazol-3-ylamino)pyridin-2-yl)methyl)cyclohexanecarbonitrile], the IC50 in assay [1] is 1.6 nM; in assay [2], more than 1000 nM.

Regarding `Cc1nnc([C@]2(Cc3cccc(Nc4cc[nH]n4)n3)CC[C@@H](Oc3cccc(Cl)c3F)CC2)o1` [Example 25, 6-((trans-4-(3-chloro-2-fluorophenoxy)-1-(5-methyl-1,3,4-oxadiazol-2-yl)cyclohexyl)methyl)-N-1H-pyrazol-3-ylpyridin-2-amine], the values for the IC50 in assay [1] and in assay [2] were 0.87 nM and 690 nM, respectively.

Regarding `CN(C)C(=O)[C@]1(Cc2cccc(Nc3cc[nH]n3)n2)CC[C@@H](Oc2cccc(Cl)c2F)CC1` [Example 13, trans-4-(3-chloro-2-fluorophenoxy)-N,N-dimethyl-1-((6-(1H-pyrazol-3-ylamino)pyridin-2-yl)methyl)cyclohexanecarboxamide], the IC50 in assay [1] was 1.3 nM; in assay [2], more than 1000 nM.

`Fc1c(Cl)cccc1O[C@H]1CC[C@](Cc2cccc(Nc3cc[nH]n3)n2)(c2nn[nH]n2)CC1` [Example 17, 6-((trans-4-(3-chloro-2-fluorophenoxy)-1-(2H-tetrazol-5-yl)cyclohexyl)methyl)-N-1H-pyrazol-3-ylpyridin-2-amine trifluoroacetate]: the results for the half-inhibitory concentration (IC50) in assay [1] and in assay [2] were 0.45 nM and 350 nM, respectively.

Take `Cc1cc(Nc2cc[nH]n2)nc(C[C@]2(c3n[nH]c(=O)o3)CC[C@H](Oc3cccc(Cl)c3F)CC2)n1` [Example 41, 5-(trans-4-(3-chloro-2-fluorophenoxy)-1-((4-methyl-6-(1H-pyrazol-3-ylamino)pyrimidin-2-yl)methyl)cyclohexyl)-1,3,4-oxadiazol-2(3H)-one trifluoroacetate]: the figures for the IC50 in assay [1] and in assay [2] were 0.18 nM and 110 nM, respectively.

On to `O=C(O)[C@]1(Cc2cccc(Nc3nccs3)n2)CC[C@@H](Oc2cccc(Cl)c2)CC1` [Example 5, trans-4-(3-chlorophenoxy)-1-((6-(1,3-thiazol-2-ylamino)pyridin-2-yl)methyl)cyclohexanecarboxylic acid hydrochloride], for which the figures for the IC50 in assay [1] and in assay [2] were 0.12 nM and 130 nM, respectively.

Consider `Cc1nnc([C@]2(Cc3cccc(Nc4cc[nH]n4)n3)CC[C@@H](Oc3cccc(C(F)(F)F)c3F)CC2)s1` [Example 28, 6-((trans-4-(2-fluoro-3-(trifluoromethyl)phenoxy)-1-(5-methyl-1,3,4-thiadiazol-2-yl)cyclohexyl)methyl)-N-1H-pyrazol-3-ylpyridin-2-amine], for which the IC50 in assay [1] turned out to be 3.5 nM; in assay [2], 710 nM.

Take `O=C(O)[C@]1(Cc2cc(Br)cc(Nc3nccs3)n2)CC[C@@H](Oc2cccc(Cl)c2F)CC1` [Example 40, trans-1-((4-bromo-6-(1,3-thiazol-2-ylamino)pyridin-2-yl)methyl)-4-(3-chloro-2-fluorophenoxy)cyclohexanecarboxylic acid hydrochloride]: the IC50 came to 0.09 nM in assay [1] and 95 nM in assay [2].
